Test results from patent US10709692B2, “Isoxazolidine derived inhibitors of receptor interacting protein kinase 1 (RIPK1)” (Denali Therapeutics Inc., priority 2015, dated 2020).
“And” between values parts separate entries of the source, which are not always exact repeats. Equal entries are not always repeated.

Each compound was assayed against T1, receptor interacting protein kinase 1 (GST-hRIPK1 (8-327)) (Homo sapiens, UniProt Q13546) (assay: Fluorescent Polarization Binding (FP Binding) assay). Details: 10 nM GST-hRIPK1 (8-327), 5 nM fluorescent-labeled ligand, 30 min at RT.
T1 construct: GST-hRIPK1 (8-327) enzyme was generated by Proteros GmbH by Baculovirus expression system
T1 sequence (Q13546 8-327): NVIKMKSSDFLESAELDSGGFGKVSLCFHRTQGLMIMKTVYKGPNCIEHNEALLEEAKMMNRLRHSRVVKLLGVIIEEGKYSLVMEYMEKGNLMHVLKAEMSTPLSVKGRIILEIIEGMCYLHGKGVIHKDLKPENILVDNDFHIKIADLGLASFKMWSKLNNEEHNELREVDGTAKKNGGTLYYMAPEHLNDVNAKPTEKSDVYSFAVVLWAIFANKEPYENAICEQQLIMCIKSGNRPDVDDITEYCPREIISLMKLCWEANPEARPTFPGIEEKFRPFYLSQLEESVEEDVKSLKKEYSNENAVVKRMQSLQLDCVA
Procedure: Fluorescent Polarization Binding (FP Binding) assay (Berger S. B. et al. (2015) Cell Death Discovery, 1: 15009; Maki J. L. et al. (2012) Anal Biochem., 427(2): 164-174) was performed in polystyrene low volume 384-well black plate, at Room Temperature (RT) in a final volume of 10.1 μl/well using 10 nM of GST-hRIPK1 (8-327) enzyme and 5 nM of fluorescent-labeled ligand (14-(2-{[3-({2-{[4-(cyanomethyl)phenyl]amino}-6-[(5-cyclopropyl-1H-pyrazol-3-yl)amino]-4-pyrimidinyl}amino) propyl]amino}-2-oxoethyl)-16,16,18,18-tetramethyl-6,7,7a,8a,9,10,16,18-octahydrobenzo[2″3″]indolizino[8″, 0.7″:5′,6′]pyrano[3′,2′:3,4]pyrido[1,2-a]indol-5-ium-2-sulfonate.
Test compounds were serially diluted in DMSO at 100 fold final concentrations in the assay (1% DMSO final). In each well of a 384-well Plate were dispensed 0.1 μL of compound solution (or DMSO for controls) followed by 5 μL of GST-hRIPK1 (8-327) at twice the final concentrations in assay-buffer (50 mM HEPES pH 7.5, 10 mM NaCl, 50 mM MgCl2, 0.02% CHAPS, 0.5 mM DTT and 0.01% Pluronic F127). For negative control the enzyme addition was replaced by assay buffer only.
After addition of 5 μL of fluorescent-labeled ligand at twice the final concentrations in assay buffer, the plate was incubated at RT for 30 min. At the end, the binding was measured as FP value with the Envision (PerkinElmer) plate reader using filter for an excitation λ=531 nm FP and an emission λ=595 nm FP (S & P-pol).
Test compound inhibition was expressed as percent inhibition of internal assay controls. For concentration response curves, normalized data is fit and IC50 determined using XL-fit (IDBS) for Excel. IC50 were averaged to determine a mean value, for a minimum of two independent experiments.
Receptor interacting protein kinase 1 activity of exemplary compounds was determined according to the above general procedures.
Receptor interacting protein kinase 1 activity of certain compounds was determined according to the above general procedures.

SMILES | IC50
CC(C)(C)C(=O)N1OCC[C@H]1c1ccnc(N)c1 [Compound 149, 1-[(3S)-3-(2-aminopyridin-4-yl)-1,2-oxazolidin-2-yl]-2,2-dimethylpropan-1-one] | 1 to 10 µM
CC1(S(=O)(=O)N2OCC[C@H]2c2ccc(F)nc2)CC1 [Compound 93, 2-fluoro-5-[(3S)-2-[(1-methylcyclopropyl)sulfonyl]-1,2-oxazolidin-3-yl]pyridine] | 1 to 10 µM
CC(OC(F)(F)F)C(=O)N1OCC[C@H]1c1ccc(F)nc1 (single isomer, unassigned) [Compound 184] | < 1 µM
CC(C)(COC(F)(F)F)C(=O)N1OCC[C@H]1c1cncc(F)c1 [Compound 139, 1-[(3S)-3-(5-fluoropyridin-3-yl)-1,2-oxazolidin-2-yl]-2,2-dimethyl-3-(trifluoromethoxy)propan-1-one] | < 1 µM
C[C@@H]1C[C@@H](c2ccc(C#N)cc2)N(C(=O)C(C)(C)C)O1 (single isomer, unassigned) [Compound 100] | < 1 µM
Cc1ncc([C@@H]2CCON2C(=O)C(C)C2CC2)cc1F (single isomer, unassigned) [Compound 218] | < 1 µM
CC(C(=O)N1OCC[C@H]1c1ccc(C#N)cc1)C1CC1 (single isomer, unassigned) [Compound 213] | < 1 µM
CC(C(=O)N1OCCC1c1ccc(C#N)cc1)C(F)F (single isomer, unassigned) [Compound 91] | < 1 µM
CC(C)(C)C(=O)N1OCC[C@H]1c1ccc(C(F)F)nc1 [Compound 105, 1-[(3S)-3-[6-(difluoromethyl)pyridin-3-yl]-1,2-oxazolidin-2-yl]-2,2-dimethylpropan-1-one] | < 1 µM
CC(C)(C)C(=O)N1OCC[C@H]1c1cc(C#N)ccn1 [Compound 192, 2-[(3S)-2-(2,2-dimethylpropanoyl)-1,2-oxazolidin-3-yl]pyridine-4-carbonitrile] | < 1 µM
CC(C)(C(=O)N1OCC[C@H]1c1ccccc1)C(F)(F)F [Compound 55, 3,3,3-Trifluoro-2,2-dimethyl-1-[(3S)-3-phenyl-1,2-oxazolidin-2-yl]propan-1-one] | < 1 µM
CC(C)(C(=O)N1OCC[C@H]1c1ccc(F)cc1)N1CCC1 [Compound 156, 2-(azetidin-1-yl)-1-[(3S)-3-(4-fluorophenyl)-1,2-oxazolidin-2-yl]-2-methylpropan-1-one] | 1 to 10 µM
CC(C)(C)C(=O)N1OCC[C@@H]1c1cc(F)cc(F)c1 (single isomer, unassigned) [Compound 102] | < 1 µM
CC(CC(F)(F)F)C(=O)N1OCC[C@H]1c1ccc(C#N)cc1 (single isomer, unassigned) [Compound 230] | < 1 µM
C[C@H]1C[C@@H](c2ccc(C#N)cc2)N(C(=O)C(C)(C)C)O1 (single isomer, unassigned) [Compound 99] | < 1 µM
Cc1ncc([C@@H]2CCON2C(=O)C(C)(C)C(F)F)cc1C#N [Compound 220, 5-[(3S)-2-(3,3-difluoro-2,2-dimethylpropanoyl)-1,2-oxazolidin-3-yl]-2-methylpyridine-3-carbonitrile] | < 1 µM
Cc1ncc([C@@H]2CCON2C(=O)C(C)C2CC2)cc1F (single isomer, unassigned) [Compound 217] | < 1 µM
[2H]C([2H])([2H])C(C(=O)N1OCC[C@H]1c1ccc(F)nc1)(C([2H])([2H])[2H])C([2H])([2H])[2H] [Compound 161, 1-[(3S)-3-(6-fluoropyridin-3-yl)-1,2-oxazolidin-2-yl]-2,2-bis(^2H3)methyI(^2H3) propan-1-one] | < 1 µM
O=C(N1OCC[C@H]1c1ccc(F)nc1)C1(C2CC2)CC1 [Compound 159, 5-[(3S)-2-(1-cyclopropylcyclopro-panecarbonyl)-1,2-oxazolidin-3-yl]-2-fluoropyridine] | < 1 µM
CC(C)(C)C(=O)N1OCC[C@H]1c1ccc(C#N)c(F)c1 [Compound 151, 4-[(3S)-2-(2,2-dimethylpropanoyl)-1,2-oxazolidin-3-yl]-2-fluorobenzonitrile] | < 1 µM

SMILES | IC50
CC(C)(C)C(=O)N1OCC[C@H]1c1ccnc(C(F)F)c1 [Compound 175, 1-[(3S)-3-[2-(difluoromethyl)pyridin-4-yl]-1,2-oxazolidin-2-yl]-2,2-dimethylpropan-1-one] | < 1 µM
Cc1ncc([C@@H]2CCON2C(=O)C(C)(C)C)cc1C#N [Compound 219] | < 1 µM
CC(C)(C)C(=O)N1OCC[C@H]1c1cc(Br)cc(C#N)c1 [Compound 222, 3-bromo-5-[(3S)-2-(2,2-dimethylpropanoyl)-1,2-oxazolidin-3-yl]benzonitrile] | < 1 µM
CC(C(=O)N1OCC[C@H]1c1ccc(C#N)cc1)C1CC1 (single isomer, unassigned) [Compound 214] | < 1 µM
Cc1ncc([C@@H]2CCON2C(=O)C(C)(C)CC#N)cc1F [Compound 196, 4-[(3S)-3-(5-fluoro-6-methylpyridin-3-yl)-1,2-oxazolidin-2-yl]-3,3-dimethyl-4-oxobutanenitrile] | < 1 µM and 0.009 µM
CC(C)(C)C(=O)N1OCC[C@H]1c1cncc(Cl)c1 [Compound 174, 1-[(3S)-3-(5-chloropyridin-3-yl)-1,2-oxazolidin-2-yl]-2,2-dimethylpropan-1-one] | < 1 µM
CC(C)(C(=O)N1OCC[C@H]1c1cccc(C#N)c1)C(F)F [Compound 239, 3-[(3S)-2-(3,3-difluoro-2,2-dimethylpropanoyl)-1,2-oxazolidin-3-yl]benzonitrile] | < 1 µM
CC(C)(C)C(=O)N1OCC[C@@H]1c1ccc(Cl)cc1 [Compound 48, 1-[(3R)-3-(4-Chlorophenyl)-1,2-oxazolidin-2-yl]-2,2-dimethylpropan-1-one] | > 10 µM
COCC1(C(=O)N2OCC[C@H]2c2ccccc2)CC1 [Compound 76, (3S)-2-[1-(Methoxymethyl)cyclo-propanecarbonyl]-3-phenyl-1,2-oxazolidine] | 1 to 10 µM
C[C@](O)(C(=O)N1OCC[C@H]1c1ccc(F)nc1)C(F)(F)F [Compound 166, (2S)-3,3,3-trifluoro-1-[(3S)-3-(6-fluoropyridin-3-yl)-1,2-oxazolidin-2-yl]-2-hydroxy-2-methylpropan-1-one] | 1 to 10 µM
CC1(C(=O)N2OCC[C@H]2c2ccc(F)cc2)CCCOC1 (single isomer, unassigned) [Compound 36] | < 1 µM
CC(OC(F)(F)F)C(=O)N1OCC[C@H]1c1ccc(F)cc1 (single isomer, unassigned) [Compound 183] | < 1 µM
CC(C)(C(=O)N1OCC[C@H]1c1ccc(F)cc1)C1CC1 [Compound 193, 2-cyclopropyl-1-[(3S)-3-(4-fluorophenyl)-1,2-oxazolidin-2-yl]-2-methylpropan-1-one] | < 1 µM and 0.005 µM
CC1(C(=O)N2OCC[C@H]2c2ccc(F)cc2)COC1 [Compound 33, (3S)-3-(4-Fluorophenyl)-2-(3-methyloxetane-3-carbonyl)-1,2-oxazolidine] | < 1 µM
CC(C)(C(=O)N1OCC[C@H]1c1ccc(C#N)s1)C(F)F [Compound 204, 5-[(3S)-2-(3,3-difluoro-2,2-dimethylpropanoyl)-1,2-oxazolidin-3-yl]thiophene-2-carbonitrile] | < 1 µM
O=C(N1OCC[C@H]1c1ccc(F)cc1)C1(C(F)(F)F)CCC1 [Compound 39, (3S)-3-(4-Fluorophenyl)-2-[1-(trifluoromethyl)cyclo-butanecarbonyl]-1,2-oxazolidine] | < 1 µM
O=C(N1OCC[C@H]1c1ccc(F)nc1)C1(C(F)F)CC1 [Compound 170, 5-[(3S)-2-[1-(difluoromethyl)cyclo-propanecarbonyl]-1,2-oxazolidin-3-yl]-2-fluoropyridine] | < 1 µM
O=C(c1cnn2ccccc12)N1OCC[C@H]1c1ccccc1 [Compound 21, (3S)-3-phenyl-2-{pyrazolo[1,5-a]pyridine-3-carbonyl}-1,2-oxazolidine] | 1 to 10 µM
Cc1cnc([C@@H]2CCON2C(=O)C(C)(C)CC#N)cn1 [Compound 104, 3,3-dimethyl-4-[(3S)-3-(5-methylpyrazin-2-yl)-1,2-oxazolidin-2-yl]-4-oxobutanenitrile] | < 1 µM
